Source: US5409946A, “Isoxazole, isothiazole and pyrazole compounds that enhance cognitive function” (Abbott Laboratories, priority 1993, dated 1995)
Several values for one entry are separate records, joined by “and”; a condition that tells them apart may be missing. Identical values can stand only once. Entries after “also recorded” stand apart in the source; their conditions may differ. Like-named read-outs stand apart in the source and are kept apart here.

How the values were obtained:
[1] = tested on: neuronal nicotinic cholinergic channels in PC12 cells; experiment: Cholinergic channel activator action in PC12 cells, whole-cell patch-clamp; type: cell-based, rat; conditions: PC12 cells; mean ± S.E.M.
Procedure: Electrophysiologic recordings were obtained from differentiated (neurite-bearing) cells after 4-7 days exposure to NGF. […] After 20 minutes, differentiating medium was added (DMEM containing 100 ng/ml nerve growth factor, 5% heat-inactivated fetal calf serum and 2.5% heat-inactivated horse serum) and the cells were refed with this medium every 3 days.
The intracellular (recording pipette) solution consisted of 140 mM KCl, 1.0 mM CaCl2, 2.0 mM MgCl2, 11 mM K-EGTA, and 10 mM K-HEPES buffer (7.3 pH, 315 mOsm). Osmolarities were adjusted using dextrose such that the extracellular solution was 10 mOsm hypertonic compared to the intracellular solution. Voltage-gated inward (sodium) and outward (potassium) currents were monitored throughout the experiment to determine establishment and maintenance of the whole-cell recording configuration.

[2] = tested on: retention of the avoidance response; experiment: Inhibitory avoidance test; type: in vivo; conditions: i.p. 15 min before training, retention at 24 h, p<0.05
Source text: The inhibitory (or sometimes called passive) avoidance (IA) test is a well-accepted animal model for learning/memory and is widely used to assess the activity of novel cognition enhancers in enhancing cognitive function (Wanibuchi et al., Eur. J. Pharmacol., 1990, 187:479). According to this test, animals are placed in the illuminated (12×14×11 cm) portion of a two-chambered box, from which they enter through a guillotine door to the larger (24×13.5×12 cm) dark compartment of the box. Entry to the dark compartment is accompanied by a mild (0.35 mA), brief (2 seconds) footshock. Initial latencies to cross are recorded, with an imposed 60 second ceiling. Following a 24 hour retention interval, animals are returned to the illuminated chamber, and latency to return to the dark compartment is again recorded, with a ceiling of 180 seconds. No footshock is administered on the test day.
Twelve animals were used in each group.

[3] = tested on: time spent in the open arms (anxiolytic activity); experiment: Mouse elevated plus-maze; type: in vivo, CD1 mice; conditions: i.p., p<0.05; for Elevated Plus-Maze (EPM) result: time in open arms
Source text: The mouse elevated plus-maze is a commonly-used conflict test that probes anxiolytic activity of test compounds (Lister, Psychopharmacology, 1987, 92 180). It is based on the fact that exposure of mice to an elevated open arm leads to an avoidance response considerably stronger than that evoked by exposure to an enclosed arm.
The apparatus required to perform this test is made of plywood and consists of two open arms (17×8 cm) and two enclosed arms (17×8×15 cm) extending from a central platform (8×8 cm). It is mounted on a plywood base rising 39 cm above the floor. Mice are released on the central platform and the time spent in the open and enclosed arms is recorded during a 5 minute test period.
The compound of Example 2 (0.0108-1.08 μmol/kg, i.p.) was administered to CD1 mice (n=12 per group) 15 minutes before the test.

ethanol-induced narcosis = type: in vivo, male CD1 mice
Source text: It is known that administration of ethanol to mice induces a state of narcosis in the animals. […] It is also known that certain compounds can modify the narcotic effect of ethanol in this model.
Animals: Male CD1 mice (Charles-River Co., Portage, Mich.) weighing 25-30 g were used in the experiments. Upon arrival they were caged in groups of 14 and allowed to acclimatize to laboratory conditions for one week before the beginning of the studies. They were fed standard rodent diet with food and water ad libitum.
Duration of sleep time: Mice received intraperitoneal (i.p.) injections of ethanol and either saline or one of the drug treatments. Upon loss of the righting reflex, a timer was started to record the duration of the sleep time until the reflex was recovered. Two types of experiments were conducted to study the effect of drugs before (pre-treatment) or after (post-treatment) the injection of the narcotic dose of ethanol. In the pre-treatment experiments the drugs were injected i.p., 15 minutes before ethanol. In the post-treatment experiments the drugs were administered i.p., 1 minute after the animals lost the righting reflex, which was approximately 5 minutes after administration of ethanol.
Drugs: Ethanol was prepared as a 20% v/v (16% w/v) solution in saline. Based on previous studies, a dose of 87 mmol/kg (4 g/kg) was selected as the narcotic dose. RO 15-4513, the benzodiazepine receptor inverse agonist discussed in the Background section, was purchased from RBI (Natick, Mass.). It was dissolved in saline solution with Tween-80 and ultrasonically homogenized for 3 minutes. […] The compounds of Examples 2 and 4, both novel neuronal nicotinic receptor ligands according to the present invention, were also dissolved in saline to the desired concentrations.

spike wave discharges = experiment: Attenuation of petit mal absence-like spike wave discharges (EEG); type: in vivo, male Wistar rats; conditions: i.p.; 20 min waking immobility; p<0.05 where significant
Procedure: Animals: Male albino rats of the Wistar strain (CAMM Research) were maintained on a 12:12 hour light-dark cycle and individually housed throughout these experiments. They were fed standard rodent diet with food and water provided ad libitum.
EEG Recordings: To record spike wave discharges, rats were surgically implanted with permanently affixed EEG electrodes over the frontal codex using previously described techniques (Radek, Brain Res., 1993, in press). After at least a ten day recovery from this surgery, EEG recordings were made inside darkened sound attenuating chambers. Rats were allowed to move freely within the chambers and computerized activity monitors recorded animal motion during these studies. Only those rats that express spike wave discharges, as identified from preliminary recordings, were used to test the effects of nicotinic agents.
Drug studies: EEG recordings were obtained from each rat for a period of 20 minutes of total waking immobility immediately after administration of drug, or a drug-free control solution. Immobility was characterized as the absence of infrared beam interruptions from the activity monitor system. Spike wave activity was identified as regular 6-10 Hz complexes with amplitudes of 0.4 to 1.0 mV. The total spindling duration for 20 minutes of waking immobility was calculated by determining the length (in seconds) of each spike wave burst, and adding each of these times together to obtain a total spindle time for the recording session. Each rat was administered the control solution and one or two doses of the test compounds and each dosing was given at least 48 hours after the previous treatment.
The compound of Example 2 was dissolved in saline to the desired concentration.

1-4 Hz slow wave EEG = 1-4 Hz slow wave EEG amplitude; type: in vivo, male Wistar rats
[4] = tested on: anxiety induced by (-)-nicotine withdrawal; experiment: Elevated plus-maze 48 hours after withdrawal of 14-day chronic (-)-nicotine; type: in vivo, rats
Source text: The mouse elevated plus-maze is a conflict test that probes anxiolytic activity of test compounds (Lister, Psychopharmacology, 1987, 92:180). It is based on the fact that exposure of mice to an elevated open arm leads to an avoidance response considerably stronger than that evoked by exposure to an enclosed arm. Compounds may be tested for their ability to modify the avoidance response of the animal to the open arm maze. […] The effect of such potential anti-anxiety drugs may be tested further in a withdrawal challenge test.
Elevated Plus-Maze: The procedure originally described by Pellow et al., for rats was used, with minor modifications (Pellow et al., J. Neurosci. Meth., 14: 149, 1985). The apparatus consisted of two open arms (50×10 cm) and two enclosed arms (50×10×40 cm) extending from a central platform (10×10 cm). It was mounted on a base raising 50 cm above the floor. Light levels on the open and enclosed arms were similar. The animals were placed in the center of the maze and the time spent in the open arms and the total distance traveled by the rat were recorded automatically by a camera mounted above the apparatus, then analyzed by computer (Videomex™ software, Columbus Instruments, Columbus, Ohio). All animals used were naive to the apparatus. Animals were injected i.p. with saline or the different drug doses, and submitted to the test 30 minutes later. The test lasted 5 minutes, and the apparatus was thoroughly cleaned after removal of the animal.
The pumps were removed on day 14 and the animals were tested in the plus-maze 48 hours later, at the time when a state of withdrawal-induced anxiety was present in the rats. On the test day i.p. doses of either saline or the compound of Example 2 were administered to the animals 30 minutes before the test. Data (Table 13) represent the mean ±SEM time spent in the open arms of the plus-maze of 8-16 rats.

effects of ethanol = conditions: cited from earlier work
[5] = biological target: neuronal nicotinic receptors; experiment: Displacement of [3H]-MCC or [3H]-cytisine from neuronal nicotinic receptors, whole rat brain membranes; type: binding
Procedure: Binding of [^3 H]-methylcarbamylcholine ([^3 H]-MCC) or [^3 H]-cytisine ([^3 H]-CYT) to nicotinic receptors was accomplished using crude synaptic membrane preparations from whole rat brain (Snyder and Enna, Brain Research, 1975, 100:81). Washed membranes were stored at -80° C. prior to use. Frozen aliquots were slowly thawed and resuspended in 20 volumes of buffer (containing: 120 mM NaCl, 5 mM KCl, 2 mM MgCl2, 2 mM CaCl2 and 50 mM Tris-Cl, pH 7.4 @4° C). After centrifuging at 20,000 X g for 15 minutes, the pellets were resuspended in 30 volumes of buffer. Homogenate (containing 125-150 μg protein) was added to triplicate tubes containing concentrations of test compound and [^3 H]-MCC (3 nM) in a final volume of 500 μL. Samples were incubated for 60 minutes at 4° C., then rapidly filtered through Whatman GF/B filters presoaked in 0.5% polyethylimine using 3×4 mL of ice-cold buffer. Alternately, homogenate and test compound were incubated for 75 min with [^3 H]-CYT (1.3 nM), then rapidly filtered, as described above. The filters are counted in 4 mL of Ecolume® (ICN). […] IC50 values were determined with the ALLFIT nonlinear least squares curve-fitting program and IC50 values were converted to Ki values using the Cheng and Prusoff correction (Ki =IC50 /(1+[ligand]/Kd of ligand)). Alternately, data were expressed as a percentage of the total specific binding.

muscarinic receptors = type: binding, rat; conditions: Table 2
Procedure: The potencies of ligand binding at central muscarinic binding sites were determined by analysis of competition with the specific muscarinic receptor radioligand [^3 H]-quinuclidinyl benzilate ([^3 H]-QNB). […] Competition between various concentrations of putative nicotinic ligand compounds and 0.2 nM [^3 H]-QNB was performed at 25° C. in an assay volume of 1 mL. After 75 minutes, the bound radioligand was separated by vacuum filtration on Whatman GF/B glass fiber filters. Non-specific binding was defined as radioactivity remaining in the presence of 10 μM atropine. Competition curves were analyzed for Ki values as described above for binding to the nicotinic receptor.

[6] = in vivo; cited from earlier work

With `CN1CCCC1c1cccnc1` (single isomer, unassigned; (-)) [(-)-Nicotine] the EC50 [1] was 52 ± 4 µM, the “Inhibitory Avoidance (IA) result” value [2] was “dose-dependent facilitation of retention of the avoidance response” and the “Inhibitory Avoidance (IA) result” value ([2]; listed as (-)-nicotine) was “significant”. The “Elevated Plus-Maze (EPM) doses with significant effect” value [3] was 0.62 to 1.9 µmol/kg, the “Elevated Plus-Maze (EPM) result” value [3] was “significant increase in the time spent by the mice in the open arms” and the “Elevated Plus-Maze (EPM) result” value ([3]; listed as (-)-nicotine) was “significant”. The “effect of pre-treatment on ethanol sleeping time” value (ethanol-induced narcosis; mouse, in vivo) was “significantly reduced the sleeping time of ethanol in mice”, the Sleeping time (ethanol-induced narcosis; mouse, in vivo, ip) was 121 ± 18 % of controls and 149 ± 28 % of controls and 164 ± 32 % of controls and 232 ± 29 % of controls and the “effect of post-treatment on ethanol-induced narcosis” value (ethanol-induced narcosis; mouse, in vivo, ip) was “significantly prolonged the narcotic effect of ethanol; also recorded: adversely potentiated the narcotic effect”. For the same molecule, the “effect on incidence of spike wave discharges” value (spike wave discharges) was “significantly lowered the incidence of spike wave discharges”, the “1-4 Hz amplitude” value (1-4 Hz slow wave EEG; 1.9 μmol/kg i.p.) was 13.2 ± 2.0 μVolts and the “effect on low frequency (1-4 Hz) EEG slow-wave patterns” value (1-4 Hz slow wave EEG; i.p.) was “significant (p<0.05, 2-way ANOVA, Fisher post hoc analysis) attenuation”. The “effect on time spent in the open arms” value ([4]; 48 h after withdrawal of chronic (-)-nicotine) was “significant reduction in the time spent in the open arms”, the “TIME OPEN ARMS” value ([4]; 14 days chronic 10 mg/kg/day then withdrawal, saline challenge, *p < 0.05 against chronic saline, mean ± SEM) was 35.1 ± 6.0 s and the “effect on motor incoordination due to ethanol” value (effects of ethanol; administered directly into the brain, ethanol i.p.) was “significantly attenuate the motor incoordination due to the effects of ethanol”.
Work on `COC(=O)C1=CCCN(C)C1` [Arecoline, reference compound] yielded a Ki ([5]; Table 1, read-out: Nicotinic Receptor Ki) of 0.059 µM, a Ki ([5]; Table 2, read-out: Nicotinic Ki) of 0.059 µM and a Ki (muscarinic receptors) of 5 µM. The pharmacokinetics [6] was “unfavorable pharmacokinetics”.
With `CCOC(=O)c1ncn2c1CN(C)C(=O)c1cc(N=[N+]=[N-])ccc1-2` [RO 15-4513] the Sleeping time (ethanol-induced narcosis; post-treatment, 1 μmol/kg i.p.) was 84 ± 14 % of controls, the Sleeping time (ethanol-induced narcosis; post-treatment, 3 μmol/kg i.p., statistically significant) was 165 ± 22 % of controls and the Sleeping time (ethanol-induced narcosis; post-treatment, 10 μmol/kg i.p.) was 118 ± 13 % of controls. For the same molecule, the Sleeping time (ethanol-induced narcosis; post-treatment, 30 μmol/kg i.p.) was 73 ± 11 % of controls, the “effect of post-treatment on ethanol-induced narcosis” value (ethanol-induced narcosis; post-treatment, i.p., p<0.05, one-tailed t test) was “significantly prolonged the narcotic effect of ethanol; also recorded: adversely potentiated the narcotic effect” and the Sleeping time (ethanol-induced narcosis; pre-treatment, 1 μmol/kg i.p.) was 101 ± 9 % of controls. For the same molecule, the Sleeping time (ethanol-induced narcosis; pre-treatment, 3 μmol/kg i.p.) was 107 ± 19 % of controls, the Sleeping time (ethanol-induced narcosis; pre-treatment, 10 μmol/kg i.p.) was 79 ± 6 % of controls and the Sleeping time (ethanol-induced narcosis; pre-treatment, 30 μmol/kg i.p., statistically significant) was 57 ± 14 % of controls. The “effect of pre-treatment on ethanol sleeping time” value (ethanol-induced narcosis; pre-treatment, i.p., p<0.05, one-tailed t test) was “significantly reduced the sleeping time of ethanol in mice” and the “antagonism of the effects of ethanol” value (effects of ethanol; rats) was “selectively antagonize the effects of ethanol in rats”.
